Reference: PMC5466632, “Clinical on-site monitoring of ß-lactam antibiotics for a personalized antibiotherapy” (Scientific Reports, 2017)
Read-outs that look alike come from different tables or passages of the source.

Columns and labels:
[1] = target: T1, PBP3 (penicillin-binding protein 3, PBP3*) (Streptococcus pneumoniae, UniProt Q8DQ99); assay: competitive enzyme-linked assay on microtiter plate, optical readout; settings: competition with ampicillin-biotin conjugate
T1 construct: gene dacA; soluble truncated PBP3 (Gly15-Lys394), N-terminal hexa-His tag kept, synthetic gene, expressed in E. coli BL21*(DE3) pLysS, Ni-NTA purified; captured on anti-His antibody
T1 sequence (Q8DQ99 15-394): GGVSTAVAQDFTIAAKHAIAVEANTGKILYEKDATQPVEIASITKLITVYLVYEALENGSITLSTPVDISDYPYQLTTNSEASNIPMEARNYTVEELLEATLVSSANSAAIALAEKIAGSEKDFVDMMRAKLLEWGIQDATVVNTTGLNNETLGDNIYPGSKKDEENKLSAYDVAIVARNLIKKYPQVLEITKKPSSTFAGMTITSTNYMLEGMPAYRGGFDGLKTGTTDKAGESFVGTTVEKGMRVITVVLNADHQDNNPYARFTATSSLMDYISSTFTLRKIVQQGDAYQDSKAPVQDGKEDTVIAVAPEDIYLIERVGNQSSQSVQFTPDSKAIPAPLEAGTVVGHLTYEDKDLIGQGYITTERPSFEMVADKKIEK

[2] = target: T1, PBP3 (penicillin-binding protein 3, PBP3*); assay: competitive enzyme-linked assay on electrochemical microfluidic chip, avidin-glucose oxidase readout
Source text: competitive enzyme-linked assay on electrochemical microfluidic chip, avidin-glucose oxidase readout on PBP3 (penicillin-binding protein 3, PBP3*)

For `CC1(C)S[C@@H]2[C@H](NC(=O)[C@H](N)c3ccccc3)C(=O)N2[C@H]1C(=O)O` [ampicillin], the “competitive enzyme-linked assay on microtiter plate, optical readout” value [1] was “confirmed via the optical quantification of ampicillin on a microtiter plate”.
In the case of `Cc1nnc(SCC2=C(C(=O)O)N3C(=O)[C@@H](NC(=O)Cn4cnnn4)[C@H]3SC2)s1` [cefazolin], the IC50 ([2]; read-out: Cefazolin (converted)) is reported as 19.2 nM.
For `CO/N=C(\C(=O)N[C@@H]1C(=O)N2C(C(=O)O)=C(COC(N)=O)CS[C@H]12)c1ccco1` [cefuroxime], the IC50 ([2]; read-out: Cefuroxime (converted)) was 26.1 nM.
`CCN1CCN(C(=O)N[C@@H](C(=O)N[C@@H]2C(=O)N3[C@@H]2SC(C)(C)[C@@H]3C(=O)O)c2ccccc2)C(=O)C1=O` [piperacillin] gave an IC50 ([2]; read-out: Piperacillin (converted)) of 35.5 nM.
